{
  "source": "patent US10471030B2",
  "about": "“Immunomodulatory and differentiating function selective retinoid and rexinoid compounds in combination with immune modulators for cancer immunotherapy” (Io Therapeutics, Inc., priority 2017, dated 2019)",
  "key": {"MM cells": {"tested_on": "MM cells", "test": "surface CD138 expression of MM cells (flow cytometry)", "type": "cell-based, human", "details": "BM stromal cell co-cultures, 1 μM", "experimental": "(§1) 24-well plates were coated with 0.1% gelatin in PBS for 30 min at 37° C. The gelatin solution was removed, and the stromal cells were cultured overnight at a density of 5×10^4 cells/well to obtain a confluent monolayer. At that time, MM cell lines or primary MM cells (1×10^5 in 2 ml) were added to the stroma cultures. The stroma cocultures were incubated at 37° C. in RPMI containing 10% FCS, L-glutamine, and P/S, with or without AGN194310 (1 μM for 5 days), R115866 (1 μM for 5 days), IRX5183 (1 μM for 5 days), or BTZ (2.5 nM for 48 hr).\nFollowing treatment, MM cells were collected, washed with PBS, and stained for 15 min at room temperature with phycoerythrin-conjugated (PE-conjugated) anti-CD138. Cells were washed to remove unbound antibody and evaluated in a FACSCalibur system (BD Biosciences). Stromal cells were identified by GFP expression, and viable cells were identified using 7-aminoactinomycin D (7-AAD). To calculate cell numbers, live GFP-cells were normalized to calibration beads.\nExpression of CD138 is a hallmark of normal PC differentiation as well MM PCs."}, "[1]": {"tested_on": "H929 luciferase+ (Luc+) cells", "test": "systemic MM xenograft, bioluminescence", "type": "in vivo, NSG mice", "details": "4 weeks", "experimental": "For the systemic MM model, 2×10^6 Luc+/GFP+ H929 cells were injected via the tail vein into 16-week-old male NSG mice. After engraftment, as determined by an exponential increase in bioluminescence, mice were treated with BTZ (0.5 mg/kg i.p.) twice weekly and with IRX (10 mg/kg) once daily. Tumor burden was assessed by bioluminescence, as above.\nTo test whether retinoids can enhance BTZ activity in MM, a systemic MM xenograft was developed by injecting 2×10^6 H929 luciferase+ (Luc+) cells via the tail vein of non-obese, diabetic, severe combined immunodeficiency IL-2 receptor γ-KO (NSG) mice. The animals were randomized to receive IRX, BTZ, or a combination of both, and disease burden was followed weekly by bioluminescence imaging (FIG. 6)."}, "NB4 cells": {"tested_on": "NB4 cells", "test": "CFU experiments off and on stroma, NB4 cells", "type": "cell-based", "details": "10^−7 M ATRA, IRX5183, or 10^−8 M AM80", "excerpt": "Data across three independent experiments."}, "[2]": {"tested_on": "Naive CD4+ CD25− FoxP3− cells", "test": "Treg cell differentiation from naive T cells in vitro (FoxP3-GFP, flow cytometry)", "type": "cell-based, mouse", "details": "10 nM", "experimental": "To determine whether a RARα agonist could affect T cell differentiation, T cells were incubated with a RARα agonist to determine its effect on Foxp3 expression. Naive CD4^+ CD25^− FoxP3^− cells were purified from a Foxp3-GFP mouse using flow cytometry by sorting and isolating based upon a GFP^− phenotype. These cells were activated polyclonally with αCD3 in vitro in the presence of IL-2 and TGF-β. These cells were then cultured in media with various concentrations of compound IRX5183 (a RARα agonist) and the expression of FoxP3-GFP was analyzed by flow cytometry. The RARα agonist compound IRX5183 enhanced differentiation of immunosuppressive Treg cells and inhibited differentiation of inflammatory TH17 cells from naïve T cells in vitro (Table 2)."}, "[3]": {"tested_on": "MM H929 cell lines and MM CD138+ primary cells", "test": "mRNA expression of B cell and PC markers in MM cells, liquid or BM stroma co-culture (qRT-PCR)", "type": "cell-based, human", "details": "1 μM for 5 days", "experimental": "as §1\nTotal RNA was extracted using the RNeasy Mini Kit (QIAGEN) according to the manufacturer's instructions. cDNA was synthesized by reverse transcription using the iScript cDNA Synthesis Kit (Bio-Rad). qRT-PCR was performed with iTaq SYBR Green Supermix (Bio-Rad) using sequence specific primers. Gene expression was normalized to GAPDH, and relative quantification was calculated using ΔΔCt. All experiments were performed in duplicate and run on the Bio-Rad CFX96 machine.\nThe BM microenvironment (also called “niche”) limits PC differentiation by modulating retinoid signaling. A population of MM progenitors, phenotypically similar to B cells, is intrinsically resistant to BTZ and contributes to MRD and relapse. To investigate whether the BM niche plays a role in determining the phenotype of MM cells, the mRNA expression of B cell and PC markers in MM H929 cell lines (FIGS. 3A-D) and MM CD138+ primary cells (FIGS. 3E-H) was analyzed following co-culture with mouse BM stroma using human-specific primers. […] In contrast, co-culture of MM cells with BM stroma decreased the mRNA expression of B lymphocyte-induced maturation protein 1 (BLIMP1) and spliced X box-binding protein 1 (XBP1s) (FIG. 3B, C, F, G), which are critical mediators of PC differentiation.\nThe BM niche regulates hematopoietic stem cell (HSC) differentiation by expressing the retinoid-inactivating enzyme CYP26. CYP26 enzymes were highly expressed in BM mesenchymal cells, while their expression was barely detectable in MM cells. Since retinoid signaling promotes PC differentiation and potentiates Ig secretion, it was determined whether stromal CYP26 is responsible for inducing a B cell phenotype in MM cells. To this end, co-culture conditions were treated with the CYP26 inhibitor R115866 (R115) or the CYP26-resistant RA receptor α-selective (RARα-selective) retinoid IRX5183 (IRX)."}, "H929 Luc+ cells": {"tested_on": "H929 Luc+ cells", "test": "subcutaneous xenograft model of MM-niche interactions with WT or Smo-KO stroma, bioluminescence", "type": "in vivo, NSG mice", "details": "IRX 10 mg/kg i.p. daily, BTZ 0.5 mg/kg i.p. twice weekly", "experimental": "1×10^6 H929 Luc+ cells and 1×10^6 mouse BM stromal cells were resuspended in 100 μl […]®, diluted with RPMI (1:1), and injected subcutaneously into 16-week-old male NSG mice. After 4 days, treatment with BTZ (0.5 mg/kg i.p. twice weekly) and IRX (10 mg/kg i.p. daily) was initiated. Tumor burden was assessed by bioluminescence using the In Vivo Imaging System (PerkinElmer). For imaging, mice were exposed to 120 mg/kg D-luciferin via intraperitoneal injection […] before imaging and were anesthetized using isoflurane. Images were analyzed with Living Image Software, version 2.5 (PerkinElmer), and data were quantified as photons/second.\nTo study to what extent an RA-low environment created by the BM stroma and enhanced by MM cells via paracrine Hedgehog signaling contributes to BTZ resistance, a xenograft model of MM-niche interactions was developed. Each mouse carried 2 subcutaneous tumors consisting of H929 Luc+ cells and either WT (anterior tumors) or Smo-KO stroma (posterior tumors). Mice were treated with IRX (10 mg/kg i.p. daily), BTZ (0.5 mg/kg i.p. twice weekly), or a combination of both. The growth of tumors bearing WT or Smo-KO stroma was not different in untreated or IRX-treated groups (FIGS. 9 and 10). […] While some tumors in the treatment group receiving combined IRX and BTZ appeared to have regressed completely, even after anatomical study, this was not the case for all the mice in this group."}},
  "data": [
    {"smiles": "CC1(C)CCC(C)(C)c2c1cc(C(=O)Nc1cc(F)c(C(=O)O)c(F)c1)c(O)c2Cl", "note": "[IRX5183]", "values": [
      {"measurement": "surface CD138 expression", "setting": "MM cells", "result": "restored CD138 expression"},
      {"measurement": "disease burden (bioluminescence)", "setting": "[1]; IRX in combination with BTZ", "result": "significant (P<0.01) decrease in disease burden"},
      {"measurement": "tumor burden (bioluminescence)", "setting": "[1]; monotherapy, BTZ 0.5 mg/kg i.p. twice weekly, IRX 10 mg/kg once daily", "result": "decrease in tumor burden compared with untreated mice"},
      {"measurement": "clonogenic growth (CFU)", "setting": "NB4 cells", "result": "decrease in clonogenic growth compared to control"},
      {"measurement": "Treg cell Percent Differentiation (%)", "setting": "[2]", "result": 90, "unit": "%"},
      {"measurement": "mRNA expression of BCL6, BLIMP1, XBP1s, CHOP markers", "setting": "[3]; BM stroma co-cultures", "result": "restored all markers to levels comparable to those of liquid control conditions"},
      {"measurement": "expression of differentiation markers", "setting": "[3]; liquid conditions (absence of stroma)", "result": "induced comparable changes, irrespective of the presence or absence of BM stroma"},
      {"measurement": "growth or response of tumors bearing WT versus Smo-KO stroma", "setting": "H929 Luc+ cells", "result": "not different"}
    ]}
  ]
}
